{
  "source": "patent US5942494A",
  "about": "“Stimulation of gene expression and synthesis of heat shock protein 72/73 (HSP 70)” (The Trustees of Columbia University in the City of New York, priority 1996, dated 1999)",
  "key": {"[1]": {"tested_on": "HSF1", "assay": "Western blot of steady-state HSF1 protein levels in HepG2 whole cell extracts", "assay_type": "cell-based, human", "details": "ALLN 40 μg/ml, 2 hours, with or without cycloheximide", "method": "FIGS. 6A-6B: ALLN affects the trimerization of HSF. HepG2 cells were treated with serum-free MEM containing 1.5% BSA for 2 hours at 37° C. without any additions (lane1), at 37 ° C. but containing 40μg/ml of ALLN in the medium (lane2), at 37° C. in a medium containing both ALLN and 50 μg/ml of cycloheximide (lane3) , at 42° C. alone (lane4), or at 42° C. plus cycloheximide in the medium (lane5). Cell lysates were prepared as described under Experimental Details. The lysates were either directly run on the SDS-PAGE (A) to show the steady-state protein levels of HSF1 or subjected to cross-linking with ethylene glycol bis sucrinimidylsuccinate (EGS) before running the gel (B) to show the oligomeric forms of HSF1. The proteins were then transfered to a nitrocellulose membrane and immunoblotted with anti-human HSF1 antibody. Arrows on the right side indicates the monomeric, dimeric or trimeric forms of HSF1, respectively. This experiment was repeated three times with identical results.\nFor measurement of the steady-state HSF1 protein levels, whole cell extracts were prepared by lysing the cells directly with 2×SDS-sample buffer (Maniatis, et al., 1982). For chemical cross-linking experiments, whole-cell extracts were prepared as described (Mosser, et al., 1988). Briefly, the cold PBS-washed cell pellets were quickly and repeatedly frozen in liquid nitrogen. […]"}, "[2]": {"tested_on": "Hsp60", "assay": "Immunoprecipitation of Hsp60 from radiolabeled HepG2 cells", "assay_type": "cell-based, human", "details": "HepG2, ALLN 4 hours", "method": "(§1) FIGS. 7A-7B: Effects of ALLN on the biosynthesis of other members of Hsp family and related proteins. HepG2 cells were pre-treated and radiolabeled with or without ALLN for 4 hours as described in FIG. 1. Cell lysates were used for SDS-PAGE (A), or for immunoprecipitation with anti-Hsp25, -Hsp27, -Hsp60, -Hsp70, -Hsp86, -Hsp90, -Hsp104, -Bip, or -albumin antibodies respectively (1 μg/ml) (B). Because the anti-Hsp25, -Hsp27, -Hsp60 and Hsp90 antibodies are from a rat source, rabbit anti-rat IgG antibody was added after the first incubation, and the incubation was extended for another 1 hour at 4° C. before collection with protein A-Sepharose.Immunoprecipitates were loaded for SDS-PAGE and aliquoted for scintillation counting and plotting. Each value was presented as mean ±S.D. from three individual culture dishes.\n(§2) HepG2 cells were preincubated for 4 hours in serum-free MEM and then radiolabeled with ^3 H-Leucine (150 μCi/ml) in a serum-free, leucine-free medium. […] Cell lysates containing equal amounts of trichloroacetic acid (TCA)-insoluble radioactivity were used for immunoprecipitations by incubating with individual monoclonal antibody (1 μg/ml) for 2.5 hours at 4° C. […]"}, "[3]": {"tested_on": "Bip", "assay": "Immunoprecipitation of Bip from radiolabeled HepG2 cells", "assay_type": "cell-based, human", "details": "HepG2, ALLN 4 hours", "method": "as §1, §2"}, "[4]": {"tested_on": "calpain", "details": "Rock, et al., 1994; cited from earlier work"}, "[5]": {"target": "cathepsin B (Homo sapiens, UniProt P07858)", "details": "Rock, et al., 1994; cited from earlier work"}},
  "note": "Square brackets hold non-standard residues; d marks the D form. Peptide text beside a SMILES is read from it. Nle = CCCC[C@H](N)C(=O)O",
  "data": [
    {"smiles": "CCCC[C@@H](C=O)NC(=O)[C@H](CC(C)C)NC(=O)[C@H](CC(C)C)NC(C)=O", "note": "[ALLN, N-acetyl-leucyl-leucyl-norleucinal] (Ac-Leu-Leu-[Nle]-aldehyde)", "values": [
      {"measurement": "Steady-state levels of HSF1 in whole cell extracts", "setting": "[1]", "value": "not significantly affected"},
      {"measurement": "Effect on Hsp60", "setting": "[2]", "value": "no effects"},
      {"measurement": "Effect on Bip", "setting": "[3]", "value": "no effects"},
      {"measurement": "Activity against calpain", "setting": "[4]", "value": "significant activities"},
      {"measurement": "Activity against cathepsin B", "setting": "[5]", "value": "significant activities"}
    ]}
  ]
}
